Measurements from patent US20100240674A1 (priority 2007, published 2010).
Structures can show the parent of a compound that is named as a salt.

What was measured:
[1] = tested on: NPC mice; assay: Hanging Test (locomotor activity); type: in vivo; conditions: 50 mg/Kg daily intraperitoneally for 28 days, vs saline
From the text: To test locomotor activity, the Hanging Test that has been validated for these mice was used (Voikar et al., 2002). For this test a score from 0 to 5 was assigned to the mice based on their motor capabilities. To determine the score, the animal is observed during 30 seconds, a value is assigned according to the following scale: 0, if it falls before 10 seconds; 1, if it hangs from the bar with its fore paws; 2, if it tries to climb on the bar with its hind paws; 3, if it grabs the bar with its fore paws and one or two hind paws; 4, if it grabs the bar with all four paws and its tail; and 5, if it actively escapes from the bar and reaches one of the ends of the bar.

[2] = tested on: cerebella of NPC mice; assay: TUNEL immunofluorescence apoptosis analysis on cerebella; conditions: 50 mg/Kg daily intraperitoneally for 28 days, vs saline
[3] = tested on: cerebellar Purkinje neurons
From the text: In all experiments discussed herein, “NPC mice” refers to mice deficient in the NPC1 protein or NPC1−/−. In FIG. 1, the cerebellums of 4 week old NPC mice and wild type mice are shown at a, b, g and h. The cerebellums of 6 week old NPC mice and wild type mice are shown at c, d, i and j. The cerebellums of 8 week old NPC mice and wild type mice are shown at e, f, k and l. The immunohistochemical procedures utilized were: anti-c-Abl, (K12; 1:500) and anti-p73 (H-79; 1:250) (Santa Cruz Biotech, Santa Cruz, Calif.), and anti-calbindin D-28K (1:1,000). Immunohistochemical procedures were carried out by means of histological stain on floating sections. Immunocytochemistry was performed using the avidin biotin horseradish peroxidase complex (ABC) method (Vector Laboratories, Burlingame, Calif.) and sections were mounted on gelatin pre-coated slides and air-dried, then dehydrated in graded ethanol and finally covered with Permount.
The immunohistochemical protocols used are the same as those described above relating to FIG. 1.
The following process was used for in situ apoptosis detection: the terminal deoxynucleotidyl transferase mediated deoxyuridine-biotin (dUTP) nick end labeling (TUNEL) was performed using the apoptosis detection kit purchased from Roche Molecular Biochemicals (Mannheim, Germany). The sections were first incubated in a blocking solution containing 3% H2O2 in methanol. Afterward, slices were incubated in 0.1% Triton X-100 in 0.1% sodium citrate over-night at RT to increase the permeability. After being washed twice in PBS, pH 7.4, the sections were immersed in the TUNEL reaction mixture, containing dUTP-fluorescein and terminal deoxynucleotidyl transferase (TdT) conjugated for 60 minutes at 37° C. in a dark, humid atmosphere. The process was terminated by washing the sections twice in PBS buffer. For the immunofluorescence (IF) sections slides were incubated overnight with rabbit polyclonal anti-calbindin D-28K (1:1,000; Chemicon International, Temecula, Calif.). […] Fluorescent images were captured with an Olympus BX51 microscope and analyzed with IMAGE pro-express.

With `Cc1ccc(NC(=O)c2ccc(CN3CCN(C)CC3)cc2)cc1Nc1nccc(-c2cccnc2)n1` [imatinib mesylate, 4-(4-methylpiperazin-1-ylmethyl)-N-[4-methyl-3-((4-pyridin-3-yl)(pyrimidin-2-ylamino)phenyl]benzamide methanesulfonate] the “Hanging Test score” value ([1]; NPC mice) was “increased the scores”, the “effect on locomotor activity (Hanging Test)” value ([1]; wild type mice) was “does not affect the locomotor activity” and the “apoptosis in cerebella (TUNEL)” value [2] was “decreases apoptosis”. The “number of TUNEL positive cells” value [2] was “significantly less”, the “calbindin positive areas for Purkinje neurons” value ([3]; NPC mice, 50 mg/Kg daily intraperitoneally for 28 days, immunofluorescence) was “significant increase” and the “death of Purkinje neurons (calbindin immunohistochemistry)” value ([3]; NPC mice, 50 mg/Kg daily intraperitoneally for 28 days, vs saline) was “reduces the death of Purkinje neurons”. The calbindin staining ([3]; mouse, in vivo, ip, 50 mg/kg) was “does not affect the calbindin staining”.
